pIC50: −log10 of the molar value. Where a SMILES comes first, the peptide text is derived from it. [ ]: non-standard residue; d: D form. The star is where a group is joined. X1 = CC(C)CCC[C@@H](C)[C@H]1CC[C@H]2[C@@H]3CC=C4C[C@@H](OC(=O)CCOCCOCCOCCOCCNC(=O)C*)CC[C@]4(C)[C@H]3CC[C@]12C; Pentadecanoyl = CCCCCCCCCCCCCCC(=O)*; Palmitoyl = CCCCCCCCCCCCCCCC(=O)*; Hyp = O=C(O)[C@@H]1C[C@@H](O)CN1; Tridecanoyl = CCCCCCCCCCCCC(=O)*; dNle = CCCC[C@@H](N)C(=O)O; Nle = CCCC[C@H](N)C(=O)O
How the values were obtained:
[1] = tested on: influenza virus (subtype H1N1); settings: influenza virus (subtype, 2 h)
[2] = Table 2; cited from earlier work
MeV = settings: 2 h
[3] = MTT cytotoxicity assay on Vero cells; type: cell-based; settings: MTT; for CC50: calculated after 2 h of peptide treatment; for viability: 2 h, concentrations below 25 μM, read-out: viable cells
HPIV-3 = settings: 2 h

Row | Compound | pIC50 [1] | IC90 [1] | %Helix in DPC [2] | pIC50 (MeV) | IC90 (MeV) | CC50 [3] | pIC50 (HPIV-3) | IC90 (HPIV-3) | viability [3]
1 | CC[C@H](C)[C@H](NC(=O)[C@H](CCCNC(=N)N)NC(=O)[C@@H]1CCCN1C(=O)[C@@H](CC(C)C)NC(=O)[C@H](Cc1ccccc1)NC(=O)[C@H](CCCCN)NC(=O)[C@H](CO)NC(=O)[C@H](Cc1ccccc1)NC(=O)[C@H](Cc1c[nH]c2ccccc12)NC(=O)[C@@H]1CCCN1C(=O)[C@@H](NC(=O)[C@@H](N)Cc1ccccc1)C(C)C)C(=O)N[C@@H](CC(C)C)C(N)=O [TL2, H-Phe-Val-Pro-Trp-Phe-Ser-Lys-Phe-DLeu-Pro-Arg-Ile-Leu-NH2] (H-FVPWFSKF[dL]PRIL-NH2) | 4.92 | 21.3 µM | 15% | < 4.30 | > 50 µM | 56.5 µM | – | – | –
2 | CC[C@H](C)[C@H](NC(=O)[C@H](CCCNC(=N)N)NC(=O)[C@H]1CCCN1C(=O)[C@@H](CC(C)C)NC(=O)[C@H](Cc1ccccc1)NC(=O)[C@H](CCCCN)NC(=O)[C@H](CO)NC(=O)[C@H](Cc1ccccc1)NC(=O)[C@H](Cc1c[nH]c2ccccc12)NC(=O)[C@@H]1CCCN1C(=O)[C@@H](NC(=O)[C@@H](N)Cc1ccccc1)C(C)C)C(=O)N[C@@H](CC(C)C)C(N)=O [TL3, H-Phe-Val-Pro-Trp-Phe-Ser-Lys-Phe-DLeu-DPro-Arg-Ile-Leu-NH2] (H-FVPWFSKF[dL][dP]RIL-NH2) | < 4.30 | > 50 µM | 8% | < 4.30 | > 50 µM | > 100 µM | – | – | –
3 | CC[C@H](C)[C@H](NC(=O)[C@H](CCCNC(=N)N)NC(=O)[C@@H]1C[C@@H](O)CN1C(=O)[C@@H](CC(C)C)NC(=O)[C@H](Cc1ccccc1)NC(=O)[C@H](CCCCN)NC(=O)[C@H](CO)NC(=O)[C@H](Cc1ccccc1)NC(=O)[C@H](Cc1c[nH]c2ccccc12)NC(=O)[C@@H]1CCCN1C(=O)[C@@H](NC(=O)[C@@H](N)Cc1ccccc1)C(C)C)C(=O)N[C@@H](CC(C)C)C(N)=O [TL4, H-Phe-Val-Pro-Trp-Phe-Ser-Lys-Phe-DLeu-Hyp-Arg-Ile-Leu-NH2] (H-FVPWFSKF[dL][Hyp]RIL-NH2) | 4.79 | 31.7 µM | 18% | < 4.30 | > 50 µM | 60.2 µM | < 4.30 | > 50 µM | –
4 | CCCC[C@H](NC(=O)[C@@H](CC(C)C)NC(=O)[C@H](Cc1ccccc1)NC(=O)[C@H](CCCCN)NC(=O)[C@H](CO)NC(=O)[C@H](Cc1ccccc1)NC(=O)[C@H](Cc1c[nH]c2ccccc12)NC(=O)[C@@H]1CCCN1C(=O)[C@@H](NC(=O)[C@@H](N)Cc1ccccc1)C(C)C)C(=O)N[C@@H](CCCNC(=N)N)C(=O)N[C@H](C(=O)N[C@@H](CC(C)C)C(=O)N[C@@H](CSCC(=O)NCCOCCOCCOCCOCCC(=O)O[C@H]1CC[C@@]2(C)C(=CC[C@H]3[C@@H]4CC[C@H]([C@H](C)CCCC(C)C)[C@@]4(C)CC[C@@H]32)C1)C(N)=O)[C@@H](C)CC [TL6.1, H-Phe-Val-Pro-Trp-Phe-Ser-Lys-Phe-DLeu-Nle-Arg-Ile-Leu-Cys-[PEG4-Cholesterol]-NH2] (H-FVPWFSKF[dL][Nle]RILC(X1)-NH2) | 5.26 | 10 µM | – | 4.41 | > 50 µM | > 100 µM | – | – | –
5 | CCCCCCCCCCCCC(=O)N[C@@H](Cc1ccccc1)C(=O)N[C@H](C(=O)N1CCC[C@H]1C(=O)N[C@@H](Cc1c[nH]c2ccccc12)C(=O)N[C@@H](Cc1ccccc1)C(=O)N[C@@H](CO)C(=O)N[C@@H](CCCCN)C(=O)N[C@@H](Cc1ccccc1)C(=O)N[C@H](CC(C)C)C(=O)N[C@@H](CCCC)C(=O)N[C@@H](CCCNC(=N)N)C(=O)N[C@H](C(=O)N[C@@H](CC(C)C)C(N)=O)[C@@H](C)CC)C(C)C [TL6.6, H-Tridecanoic acid-Phe-Val-Pro-Trp-Phe-Ser-Lys-Phe-DLeu-Nle-Arg-Ile-Leu-NH2] (Tridecanoyl-FVPWFSKF[dL][Nle]RIL-NH2) | 5.47 | 6.66 µM | – | 4.48 | > 50 µM | > 100 µM | – | – | –
6 | CCCCCCCCCCCCCCC(=O)N[C@@H](Cc1ccccc1)C(=O)N[C@H](C(=O)N1CCC[C@H]1C(=O)N[C@@H](Cc1c[nH]c2ccccc12)C(=O)N[C@@H](Cc1ccccc1)C(=O)N[C@@H](CO)C(=O)N[C@@H](CCCCN)C(=O)N[C@@H](Cc1ccccc1)C(=O)N[C@H](CC(C)C)C(=O)N[C@@H](CCCC)C(=O)N[C@@H](CCCNC(=N)N)C(=O)N[C@H](C(=O)N[C@@H](CC(C)C)C(N)=O)[C@@H](C)CC)C(C)C [TL6.7, H-Pentadecanoic acid-Phe-Val-Pro-Trp-Phe-Ser-Lys-Phe-DLeu-Nle-Arg-Ile-Leu-NH2] (Pentadecanoyl-FVPWFSKF[dL][Nle]RIL-NH2) | 5.46 | 8.1 µM | – | 4.42 | > 50 µM | > 100 µM | – | – | –
7 | CCCCCCCCCCCCCCCC(=O)N[C@@H](Cc1ccccc1)C(=O)N[C@H](C(=O)N1CCC[C@H]1C(=O)N[C@@H](Cc1c[nH]c2ccccc12)C(=O)N[C@@H](Cc1ccccc1)C(=O)N[C@@H](CO)C(=O)N[C@@H](CCCCN)C(=O)N[C@@H](Cc1ccccc1)C(=O)N[C@H](CC(C)C)C(=O)N[C@@H](CCCC)C(=O)N[C@@H](CCCNC(=N)N)C(=O)N[C@H](C(=O)N[C@@H](CC(C)C)C(N)=O)[C@@H](C)CC)C(C)C [TL6.8, H-Palmitic acid-Phe-Val-Pro-Trp-Phe-Ser-Lys-Phe-DLeu-Nle-Arg-Ile-Leu-NH2] (Palmitoyl-FVPWFSKF[dL][Nle]RIL-NH2) | 5.32 | 7.11 µM | – | 4.40 | > 50 µM | > 100 µM | – | – | –
8 | CCCC[C@@H](NC(=O)[C@@H](CC(C)C)NC(=O)[C@H](Cc1ccccc1)NC(=O)[C@H](CCCCN)NC(=O)[C@H](CO)NC(=O)[C@H](Cc1ccccc1)NC(=O)[C@H](Cc1c[nH]c2ccccc12)NC(=O)[C@@H]1CCCN1C(=O)[C@@H](NC(=O)[C@@H](N)Cc1ccccc1)C(C)C)C(=O)N[C@@H](CCCNC(=N)N)C(=O)N[C@H](C(=O)N[C@@H](CC(C)C)C(N)=O)[C@@H](C)CC [TL7, H-Phe-Val-Pro-Trp-Phe-Ser-Lys-Phe-DLeu-DNle-Arg-Ile-Leu-NH2] (H-FVPWFSKF[dL][dNle]RIL-NH2) | 5.35 | 13.5 µM | 30% | < 4.30 | > 50 µM | 32.2 µM | < 4.30 | > 50 µM | –
9 | CC[C@H](C)[C@H](NC(=O)[C@H](CCCNC(=N)N)NC(=O)[C@H](CCCCN)NC(=O)[C@@H](CC(C)C)NC(=O)[C@H](Cc1ccccc1)NC(=O)[C@H](CCCCN)NC(=O)[C@H](CO)NC(=O)[C@H](Cc1ccccc1)NC(=O)[C@H](Cc1c[nH]c2ccccc12)NC(=O)[C@@H]1CCCN1C(=O)[C@@H](NC(=O)[C@@H](N)Cc1ccccc1)C(C)C)C(=O)N[C@@H](CC(C)C)C(N)=O [TL8, H-Phe-Val-Pro-Trp-Phe-Ser-Lys-Phe-DLeu-Lys-Arg-Ile-Leu-NH2] (H-FVPWFSKF[dL]KRIL-NH2) | 5.47 | 9.78 µM | 61% | 4.43 | > 50 µM | 22.3 µM | – | – | –
10 | CC[C@H](C)[C@H](NC(=O)[C@H](CCCNC(=N)N)NC(=O)[C@@H](CCCCN)NC(=O)[C@@H](CC(C)C)NC(=O)[C@H](Cc1ccccc1)NC(=O)[C@H](CCCCN)NC(=O)[C@H](CO)NC(=O)[C@H](Cc1ccccc1)NC(=O)[C@H](Cc1c[nH]c2ccccc12)NC(=O)[C@@H]1CCCN1C(=O)[C@@H](NC(=O)[C@@H](N)Cc1ccccc1)C(C)C)C(=O)N[C@@H](CC(C)C)C(N)=O [TL9, H-Phe-Val-Pro-Trp-Phe-Ser-Lys-Phe-DLeu-DLys-Arg-Ile-Leu-NH2] (H-FVPWFSKF[dL][dK]RIL-NH2) | 5.46 | 11.2 µM | 30% | 4.35 | > 50 µM | 45.9 µM | – | – | > 65%
11 | CC[C@H](C)[C@H](NC(=O)[C@H](CCCNC(=N)N)NC(=O)[C@H](Cc1c[nH]c2ccccc12)NC(=O)[C@@H](CC(C)C)NC(=O)[C@H](Cc1ccccc1)NC(=O)[C@H](CCCCN)NC(=O)[C@H](CO)NC(=O)[C@H](Cc1ccccc1)NC(=O)[C@H](Cc1c[nH]c2ccccc12)NC(=O)[C@@H]1CCCN1C(=O)[C@@H](NC(=O)[C@@H](N)Cc1ccccc1)C(C)C)C(=O)N[C@@H](CC(C)C)C(N)=O [TL10, H-Phe-Val-Pro-Trp-Phe-Ser-Lys-Phe-DLeu-Trp-Arg-Ile-Leu-NH2] (H-FVPWFSKF[dL]WRIL-NH2) | 5.42 | 12.1 µM | 50% | 4.37 | > 50 µM | 35.5 µM | – | – | > 65%
12 | CC[C@H](C)[C@H](NC(=O)[C@H](CCCNC(=N)N)NC(=O)[C@@H](Cc1c[nH]c2ccccc12)NC(=O)[C@@H](CC(C)C)NC(=O)[C@H](Cc1ccccc1)NC(=O)[C@H](CCCCN)NC(=O)[C@H](CO)NC(=O)[C@H](Cc1ccccc1)NC(=O)[C@H](Cc1c[nH]c2ccccc12)NC(=O)[C@@H]1CCCN1C(=O)[C@@H](NC(=O)[C@@H](N)Cc1ccccc1)C(C)C)C(=O)N[C@@H](CC(C)C)C(N)=O [TL11, H-Phe-Val-Pro-Trp-Phe-Ser-Lys-Phe-DLeu-DTrp-Arg-Ile-Leu-NH2] (H-FVPWFSKF[dL][dW]RIL-NH2) | 5.52 | 9.77 µM | 40% | 4.36 | > 50 µM | 24.1 µM | – | – | –
